Laboratory results from patent US8691753B2 (priority 2009, dated 2014).
Where two headings read alike, the source gives them in different places.

Legend:
Type in all cases: biochemical
MMP-1h = MMP-1h (Homo sapiens (Human), UniProt P03956); experiment: Inhibition constant (Ki) on MMP-1h
Description: (§1) The inhibition constant Ki of these compounds has been determined according to the protocol described by Devel et al, 2006, J. Biol. Chem. (7).
(§2) In this table I and also in table II below, “h” corresponds to human. All of the compounds have therefore been evaluated on human MMPs.

MMP-2h = MMP-2h (Homo sapiens (Human), UniProt P08253); experiment: Inhibition constant (Ki) on MMP-2h
Chain of MMP-2h (P08253 110-660): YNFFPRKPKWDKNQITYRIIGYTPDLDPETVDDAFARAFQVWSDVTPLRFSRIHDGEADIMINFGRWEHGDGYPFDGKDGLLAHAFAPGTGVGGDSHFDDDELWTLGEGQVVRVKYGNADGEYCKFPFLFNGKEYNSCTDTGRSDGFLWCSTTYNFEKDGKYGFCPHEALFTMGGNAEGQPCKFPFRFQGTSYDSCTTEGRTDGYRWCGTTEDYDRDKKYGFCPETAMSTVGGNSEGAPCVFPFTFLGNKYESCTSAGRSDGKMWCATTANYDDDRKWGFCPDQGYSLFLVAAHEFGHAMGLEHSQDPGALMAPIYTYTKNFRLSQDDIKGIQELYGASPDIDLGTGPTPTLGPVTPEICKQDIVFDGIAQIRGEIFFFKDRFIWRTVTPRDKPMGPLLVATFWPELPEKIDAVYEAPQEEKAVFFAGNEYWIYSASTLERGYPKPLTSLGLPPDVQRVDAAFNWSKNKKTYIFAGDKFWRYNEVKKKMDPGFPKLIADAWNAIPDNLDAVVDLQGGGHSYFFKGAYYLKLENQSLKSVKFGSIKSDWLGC
In short: (§3)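 Protocol from prior literature applied; inhibition constants measured for human enzymes only.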

MMP-3h = MMP-3h (Homo sapiens (Human), UniProt P08254); experiment: Inhibition constant (Ki) on MMP-3h
Chain of MMP-3h (P08254 100-477): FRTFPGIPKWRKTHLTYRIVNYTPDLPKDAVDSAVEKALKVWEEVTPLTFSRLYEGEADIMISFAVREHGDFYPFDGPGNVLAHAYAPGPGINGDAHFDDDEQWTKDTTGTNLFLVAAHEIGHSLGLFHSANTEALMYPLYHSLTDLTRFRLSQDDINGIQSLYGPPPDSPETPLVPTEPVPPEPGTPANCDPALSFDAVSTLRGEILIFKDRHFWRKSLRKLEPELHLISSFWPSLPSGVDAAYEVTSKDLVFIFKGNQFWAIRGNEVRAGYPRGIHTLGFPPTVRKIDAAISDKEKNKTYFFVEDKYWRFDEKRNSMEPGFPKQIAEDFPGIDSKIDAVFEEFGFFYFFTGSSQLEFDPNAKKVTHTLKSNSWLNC
In short: as §3

MMP-7h = MMP-7h (Homo sapiens (Human), UniProt P09237); experiment: Inhibition constant (Ki) on MMP-7h
Chain of MMP-7h (P09237 95-267): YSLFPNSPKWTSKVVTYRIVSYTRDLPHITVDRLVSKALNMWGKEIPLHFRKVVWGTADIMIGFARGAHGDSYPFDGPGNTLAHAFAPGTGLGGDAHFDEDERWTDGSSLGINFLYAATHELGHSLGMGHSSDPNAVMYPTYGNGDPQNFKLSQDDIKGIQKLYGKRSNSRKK
Description: as §1, §2

MMP-8h = MMP-8h (Homo sapiens (Human), UniProt P22894); experiment: Inhibition constant (Ki) on MMP-8h
Chain of MMP-8h (P22894 101-467): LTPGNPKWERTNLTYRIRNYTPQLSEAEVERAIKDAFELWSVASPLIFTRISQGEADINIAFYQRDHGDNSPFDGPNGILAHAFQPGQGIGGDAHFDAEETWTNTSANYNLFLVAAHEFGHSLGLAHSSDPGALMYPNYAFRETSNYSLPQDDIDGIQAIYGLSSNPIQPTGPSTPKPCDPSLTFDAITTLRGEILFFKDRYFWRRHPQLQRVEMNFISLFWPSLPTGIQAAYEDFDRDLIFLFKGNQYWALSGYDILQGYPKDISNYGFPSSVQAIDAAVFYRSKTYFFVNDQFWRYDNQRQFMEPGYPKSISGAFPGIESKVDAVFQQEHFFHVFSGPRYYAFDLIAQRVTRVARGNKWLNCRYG

MMP-9h = MMP-9h (Homo sapiens (Human), UniProt P14780); experiment: Inhibition constant (Ki) on MMP-9h
Chain of MMP-9h (P14780 94-707): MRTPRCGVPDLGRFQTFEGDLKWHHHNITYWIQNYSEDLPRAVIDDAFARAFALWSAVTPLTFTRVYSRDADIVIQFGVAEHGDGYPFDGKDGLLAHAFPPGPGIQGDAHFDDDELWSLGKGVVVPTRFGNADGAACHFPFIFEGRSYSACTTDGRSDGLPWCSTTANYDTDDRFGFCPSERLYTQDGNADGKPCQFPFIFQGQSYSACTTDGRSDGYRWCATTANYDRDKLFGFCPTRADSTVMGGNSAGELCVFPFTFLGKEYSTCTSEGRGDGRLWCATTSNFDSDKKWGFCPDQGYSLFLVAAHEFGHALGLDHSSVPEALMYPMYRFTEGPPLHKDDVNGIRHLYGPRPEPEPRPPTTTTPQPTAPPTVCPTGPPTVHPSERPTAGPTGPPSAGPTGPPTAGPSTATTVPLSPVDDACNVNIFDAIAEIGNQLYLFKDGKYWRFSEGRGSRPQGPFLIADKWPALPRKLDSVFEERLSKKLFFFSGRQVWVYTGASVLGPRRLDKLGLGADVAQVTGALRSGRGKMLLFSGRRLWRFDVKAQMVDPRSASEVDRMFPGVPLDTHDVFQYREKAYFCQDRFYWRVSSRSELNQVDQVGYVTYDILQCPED
In short: as §3

MMP-10h = MMP-10h (Homo sapiens (Human), UniProt P09238); experiment: Inhibition constant (Ki) on MMP-10h
Chain of MMP-10h (P09238 99-476): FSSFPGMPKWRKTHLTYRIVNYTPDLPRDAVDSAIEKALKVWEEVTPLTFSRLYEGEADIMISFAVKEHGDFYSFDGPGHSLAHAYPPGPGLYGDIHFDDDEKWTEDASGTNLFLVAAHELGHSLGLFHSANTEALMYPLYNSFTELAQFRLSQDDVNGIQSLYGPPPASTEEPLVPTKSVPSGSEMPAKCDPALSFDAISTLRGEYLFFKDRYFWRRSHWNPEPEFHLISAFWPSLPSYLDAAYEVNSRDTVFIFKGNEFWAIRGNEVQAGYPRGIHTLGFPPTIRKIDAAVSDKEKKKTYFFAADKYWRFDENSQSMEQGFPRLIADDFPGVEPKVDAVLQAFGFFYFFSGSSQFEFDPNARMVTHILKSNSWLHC

MMP-12h = MMP-12h (Homo sapiens (Human), UniProt P39900); experiment: Inhibition constant (Ki) on MMP-12h
Chain of MMP-12h (P39900 106-470): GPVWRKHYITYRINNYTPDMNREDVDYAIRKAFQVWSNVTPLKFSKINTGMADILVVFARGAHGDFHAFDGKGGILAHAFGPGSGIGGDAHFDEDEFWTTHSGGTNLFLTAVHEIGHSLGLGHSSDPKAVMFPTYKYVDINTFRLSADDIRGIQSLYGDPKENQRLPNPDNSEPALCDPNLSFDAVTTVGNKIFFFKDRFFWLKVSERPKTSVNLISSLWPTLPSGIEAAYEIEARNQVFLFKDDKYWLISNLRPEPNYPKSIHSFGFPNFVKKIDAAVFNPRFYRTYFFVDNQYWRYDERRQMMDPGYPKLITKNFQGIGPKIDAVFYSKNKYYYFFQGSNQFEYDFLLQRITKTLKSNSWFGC

MMP-13h = MMP-13h (Homo sapiens (Human), UniProt P45452); experiment: Inhibition constant (Ki) on MMP-13h
In short: as §3

MMP-14h = MMP-14h (Homo sapiens (Human), UniProt P50281); experiment: Inhibition constant (Ki) on MMP-14h
In short: as §3

human MMPs = experiment: Inhibition of the panel of human MMPs (overall statements, selectivity); conditions: summary of table I
[1] = read-out: Ki MMP-1h, human MMP-1
[2] = read-out: Ki MMP-2h, human MMP-2
[3] = read-out: Ki MMP-3h, human MMP-3
[4] = read-out: Ki MMP-7h, human MMP-7
[5] = read-out: Ki MMP-8h, human MMP-8
[6] = read-out: Ki MMP-9h, human MMP-9
[7] = read-out: Ki MMP-10h, human MMP-10
[8] = read-out: Ki MMP-12h, human MMP-12
[9] = read-out: Ki MMP-13h, human MMP-13
[10] = read-out: Ki MMP-14h, human MMP-14

Chain of MMP-1h (P03956 100-469): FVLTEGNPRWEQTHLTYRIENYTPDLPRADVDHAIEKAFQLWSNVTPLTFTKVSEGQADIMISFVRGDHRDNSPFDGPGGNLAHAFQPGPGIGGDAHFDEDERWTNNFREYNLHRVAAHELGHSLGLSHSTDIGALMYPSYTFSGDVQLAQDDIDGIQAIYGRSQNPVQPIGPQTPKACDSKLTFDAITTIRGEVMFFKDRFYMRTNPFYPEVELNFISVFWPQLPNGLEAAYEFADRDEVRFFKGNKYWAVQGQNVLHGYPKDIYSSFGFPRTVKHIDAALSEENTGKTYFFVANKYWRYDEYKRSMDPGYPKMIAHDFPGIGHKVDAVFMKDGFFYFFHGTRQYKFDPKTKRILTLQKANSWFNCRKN

Row | Compound | Ki (MMP-1h; [1]) [µM] | Ki (MMP-2h; [2]) [µM] | Ki (MMP-3h; [3]) [µM] | Ki (MMP-7h; [4]) [µM] | Ki (MMP-8h; [5]) [µM] | Ki (MMP-9h; [6]) [µM] | Ki (MMP-10h; [7]) [µM] | Ki (MMP-12h; [8]) [µM] | Ki (MMP-13h; [9]) [µM] | Ki (MMP-14h; [10]) [µM] | inhibitory activity toward MMPs (in words) (human MMPs) | other results
1 | N=c1ccc2c(-c3cc(C(=O)NCCCOCCOCCOCCCNC(=O)[C@H](CCC(=O)O)NC(=O)[C@H](CCC(=O)O)NC(=O)CCc4ccc(-c5cc(-c6ccccc6)cs5)cc4)ccc3C(=O)O)c3ccc(N)c(S(=O)(=O)O)c3oc-2c1S(=O)(=O)O [Compound 108] | – | – | – | – | – | – | – | – | – | – | – | Ki (MMP-1h): > 10 µM; Selectivity factor/MMP12, MMP-1h (MMP-1h; Ki MMP-1h/Ki MMP-12): 670; Ki (MMP-2h): > 2.5 µM; Selectivity factor/MMP12, MMP-2h (MMP-2h; Ki MMP-2h/Ki MMP-12): 170; Ki (MMP-3h): > 10 µM; Selectivity factor/MMP12, MMP-3h (MMP-3h; Ki MMP-3h/Ki MMP-12): 670; Ki (MMP-7h): > 10 µM; Selectivity factor/MMP12, MMP-7h (MMP-7h; Ki MMP-7h/Ki MMP-12): 670; Ki (MMP-8h): > 2.5 µM; Selectivity factor/MMP12, MMP-8h (MMP-8h; Ki MMP-8h/Ki MMP-12): 170; Ki (MMP-9h): > 5 µM; Selectivity factor/MMP12, MMP-9h (MMP-9h; Ki MMP-9h/Ki MMP-12): 333; Ki (MMP-10h): 0.833 µM; Selectivity factor/MMP12, MMP-10h (MMP-10h; Ki MMP-10h/Ki MMP-12): 55; Ki (MMP-12h): 0.015 µM; Selectivity factor/MMP12, MMP-12h (MMP-12h; Ki MMP-12h/Ki MMP-12): 1; Ki (MMP-13h): > 1 µM; Selectivity factor/MMP12, MMP-13h (MMP-13h; Ki MMP-13h/Ki MMP-12): 66; Ki (MMP-14h): > 10 µM; Selectivity factor/MMP12, MMP-14h (MMP-14h; Ki MMP-14h/Ki MMP-12): 670
2 | O=C(O)CC[C@H](NC(=O)CCc1ccc(-c2cc(-c3ccccc3)cs2)cc1)C(=O)Nc1cccc(CC(=O)O)c1 [Compound 106, (S)-5-(3-(carboxymethyl)phenylamino)-5-oxo-4-(3-(4-(4-phenylthiophen-2-yl)phenyl)propanamido)pentanoic acid] | > 1 | 0.339 | 0.791 | > 1 | 0.675 | 0.396 | 0.318 | 0.0043 | 0.132 | > 1 | – | –
3 | NC(=O)[C@H](CCC(=O)O)NC(=O)[C@H](CCC(=O)O)NC(=O)CCc1csc(-c2ccccc2)n1 [Compound 27, (S)-5-amino-4-((S)-4-carboxy-2-(3-(2-phenylthiazol-4-yl)propanamido)butanamido)-5-oxopentanoic acid] | – | > 1 | > 1 | – | > 1 | > 5 | > 5 | > 5 | 0.9 | > 5 | do not have any inhibitory activity | –
4 | NC(=O)[C@H](CCC(=O)O)NC(=O)[C@H](CCC(=O)O)NC(=O)CCc1cc(-c2ccccc2)on1 [Compound 25, (S)-5-amino-4-((S)-4-carboxy-2-(3-(5-phenylisoxazol-3-yl)propanamido)butanamido)-5-oxopentanoic acid] | – | > 1 | > 5 | – | 0.332 | > 5 | > 1 | 0.16 | 0.55 | > 1 | MMP inhibitors | –
5 | NC(=O)[C@H](CCC(=O)O)NC(=O)[C@H](CCC(=O)O)NC(=O)CCc1cc(-c2ccccc2)no1 [Compound 14, (S)-5-amino-4-((S)-4-carboxy-2-(3-(3-phenylisoxazol-5-yl)propanamido)butanamido)-5-oxopentanoic acid] | > 10 | 0.756 | > 10 | > 10 | 0.112 | > 1 | > 1 | – | > 1 | > 1 | – | –
6 | NC(=O)[C@H](CCC(=O)O)NC(=O)[C@H](CCC(=O)O)NC(=O)CCc1noc(-c2ccccc2)n1 [Compound 26, (S)-5-amino-4-((S)-4-carboxy-2-(3-(5-phenyl-1,2,4-oxadiazol-3-yl)propanamido)butanamido)-5-oxopentanoic acid] | – | > 5 | > 5 | – | > 5 | > 1 | > 5 | > 1 | > 1 | > 5 | do not have any inhibitory activity | –
7 | NC(=O)[C@H](CCC(=O)O)NC(=O)[C@H](CCC(=O)O)NC(=O)CCc1ccc(-c2cccs2)cc1 [Compound 80, (S)-5-amino-4-((S)-4-carboxy-2-(3-(4-(thiophen-2-yl)phenyl)propanamido)butanamido)-5-oxopentanoic acid] | > 100 | 0.142 | > 1 | > 1 | 0.04 | > 1 | 0.373 | 0.0086 | 0.321 | > 1 | – | –
8 | NC(=O)[C@H](CCC(=O)O)NC(=O)[C@H](CCC(=O)O)NC(=O)CCc1cc(-c2ccc(-c3cccc(Cl)c3)cc2)no1 [Compound 3, (S)-5-amino-4-((S)-4-carboxy-2-(3-(3-(3′-chlorobiphenyl-4-yl)isoxazol-5-yl)propanamido)butanamido)-5-oxopentanoic acid] | > 10 | 0.076 | 0.062 | > 1 | 0.181 | 0.565 | 0.047 | – | 0.04 | > 1 | quite a powerful inhibitor of MMPs 2, 3, 10, 12 and 13 | –
9 | NC(=O)[C@H](CCC(=O)O)NC(=O)[C@H](CCC(=O)O)NC(=O)CCc1ccc(-c2ccc(-c3ccccc3)cc2)cc1 [Compound 61, (S)-5-amino-4-((S)-4-carboxy-2-(3-(4′-phenylbiphenyl-4-yl)propanamido)butanamido)-5-oxopentanoic acid] | > 5 | 0.053 | 0.074 | 0.502 | 0.132 | > 1 | 0.076 | 0.00163 | 0.02 | > 1 | – | –
10 | NC(=O)[C@H](CCC(=O)O)NC(=O)[C@H](CCC(=O)O)NC(=O)CCc1cn(-c2ccccc2)nn1 [Compound 24, (S)-5-amino-4-((S)-4-carboxy-2-(3-(1-phenyl-1H-1,2,3-triazol-4-yl)propanamido)butanamido)-5-oxopentanoic acid] | – | > 5 | > 1 | – | > 1 | > 1 | > 1 | > 1 | > 5 | > 5 | do not have any inhibitory activity | –
11 | NC(=O)CC[C@H](NC(=O)CCc1cc(-c2ccc(-c3ccccc3)cc2)no1)C(=O)N[C@@H](CCC(=O)O)C(N)=O [Compound 20, (S)-5-amino-4-((S)-5-amino-2-(3-(3-(biphenyl-4-yl)isoxazol-5-yl)propanamido)-5-oxopentanamido)-5-oxopentanoic acid] | – | 0.834 | > 1 | – | > 1 | > 1 | > 5 | 0.412 | 0.234 | > 10 | – | –
12 | NC(=O)[C@H](CCC(=O)O)NC(=O)CCc1ccc(-c2cc(-c3ccccc3)cs2)cc1 [Compound 105, (S)-5-amino-5-oxo-4-(3-(4-(4-phenylthiophen-2-yl)phenyl)propanamido)pentanoic acid] | > 10 | 0.377 | > 1 | > 10 | – | > 1 | > 1 | 0.00365 | 0.603 | > 1 | – | –
13 | CC(C)C[C@H](NC(=O)[C@H](CCC(=O)O)NC(=O)CCc1ccc(-c2cccs2)cc1)C(N)=O [Compound 88, (S)-5-((S)-1-amino-4-methyl-1-oxopentan-2-ylamino)-5-oxo-4-(3-(4-(thiophen-2-yl)phenyl)propanamido)pentanoic acid] | – | 0.298 | > 10 | – | 0.073 | > 1 | > 1 | 0.032 | > 1 | > 1 | – | –
14 | NC(=O)[C@H](CCC(=O)O)NC(=O)[C@H](CCC(=O)O)NC(=O)CCc1ccc(-c2cccc(N)c2)cc1 [Compound 53, (S)-5-amino-4-((S)-2-(3-(3′-aminobiphenyl-4-yl)propanamido)-4-carboxybutanamido)-5-oxopentanoic acid] | – | > 1 | > 1 | – | > 1 | > 1 | > 1 | 0.19 | > 1 | > 1 | – | –
15 | NC(=O)[C@H](CC(=O)O)NC(=O)[C@H](CC(=O)O)NC(=O)CCc1cc(-c2ccc(-c3cccc(Cl)c3)cc2)no1 [Compound 10, (S)-4-amino-3-((S)-3-carboxy-2-(3-(3-(3′-chlorobiphenyl-4-yl)isoxazol-5-yl)propanamido)propanamido)-4-oxobutanoic acid] | – | 0.086 | 0.085 | – | 0.649 | > 1 | 0.093 | 0.059 | 0.018 | > 1 | – | –
